Measured values taken from ChEMBL document CHEMBL3351448, “Discovery of (7-aryl-1,5-naphthyridin-2-yl)ureas as dual inhibitors of ERK2 and Aurora B kinases with antiproliferative activity against cancer cells” (Bioorg Med Chem Lett, 2014).

Legend:
[1] = target: Vascular endothelial growth factor receptor 2 (Homo sapiens, UniProt P35968); assay: Inhibition of KDR (unknown origin)
[2] = Chromatographic hydrophobicity index, CHI of the compound by RP-HPLC method; format: physicochemical
[3] = target: Serine/threonine-protein kinase pim-1 (Homo sapiens, UniProt P11309); assay: Inhibition of PIM1 (unknown origin)
Chain of Serine/threonine-protein kinase pim-1 (P11309 whole entry): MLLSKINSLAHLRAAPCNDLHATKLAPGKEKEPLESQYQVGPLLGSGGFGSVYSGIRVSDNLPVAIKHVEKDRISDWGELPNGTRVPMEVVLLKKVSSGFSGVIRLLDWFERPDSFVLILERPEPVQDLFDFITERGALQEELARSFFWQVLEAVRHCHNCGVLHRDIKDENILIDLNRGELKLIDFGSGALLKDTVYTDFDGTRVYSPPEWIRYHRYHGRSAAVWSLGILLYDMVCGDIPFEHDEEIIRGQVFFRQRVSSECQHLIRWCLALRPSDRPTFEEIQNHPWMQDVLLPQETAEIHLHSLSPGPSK

[4] = target: High affinity nerve growth factor receptor (Homo sapiens, UniProt P04629); assay: Inhibition of TrkA (unknown origin)
Chain of High affinity nerve growth factor receptor (P04629 whole entry): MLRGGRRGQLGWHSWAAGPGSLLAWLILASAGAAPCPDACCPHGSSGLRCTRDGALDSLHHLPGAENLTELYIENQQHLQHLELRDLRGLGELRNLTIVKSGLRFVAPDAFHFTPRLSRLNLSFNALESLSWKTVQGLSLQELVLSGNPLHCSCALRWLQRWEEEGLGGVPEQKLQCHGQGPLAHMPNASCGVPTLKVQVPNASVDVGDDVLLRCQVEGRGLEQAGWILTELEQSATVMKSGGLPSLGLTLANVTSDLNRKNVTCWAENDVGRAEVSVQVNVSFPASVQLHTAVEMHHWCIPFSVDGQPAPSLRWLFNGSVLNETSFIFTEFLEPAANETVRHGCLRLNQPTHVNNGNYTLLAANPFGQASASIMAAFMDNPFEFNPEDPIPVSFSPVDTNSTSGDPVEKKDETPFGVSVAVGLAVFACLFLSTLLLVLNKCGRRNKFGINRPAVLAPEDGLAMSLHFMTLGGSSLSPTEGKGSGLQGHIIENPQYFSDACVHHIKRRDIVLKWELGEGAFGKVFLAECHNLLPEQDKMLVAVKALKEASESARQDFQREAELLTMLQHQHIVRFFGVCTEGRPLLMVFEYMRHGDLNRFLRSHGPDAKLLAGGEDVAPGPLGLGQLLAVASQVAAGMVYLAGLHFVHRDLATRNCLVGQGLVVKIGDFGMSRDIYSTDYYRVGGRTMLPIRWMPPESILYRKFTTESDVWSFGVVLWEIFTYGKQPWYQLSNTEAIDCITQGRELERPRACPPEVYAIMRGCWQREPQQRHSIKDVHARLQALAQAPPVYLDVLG

[5] = Antiproliferative activity against human PC3 cells; format: functional, cell-based; details: PC-3
A549 = assay: Antiproliferative activity against human A549 cells; format: functional, cell-based
MDA-MB-468 = assay: Antiproliferative activity against human MDA-MB-468 cells; format: functional, cell-based
[6] = target: Tyrosine-protein kinase Yes (Homo sapiens, UniProt P07947); assay: Inhibition of YES (unknown origin)
Chain of Tyrosine-protein kinase Yes (P07947 whole entry): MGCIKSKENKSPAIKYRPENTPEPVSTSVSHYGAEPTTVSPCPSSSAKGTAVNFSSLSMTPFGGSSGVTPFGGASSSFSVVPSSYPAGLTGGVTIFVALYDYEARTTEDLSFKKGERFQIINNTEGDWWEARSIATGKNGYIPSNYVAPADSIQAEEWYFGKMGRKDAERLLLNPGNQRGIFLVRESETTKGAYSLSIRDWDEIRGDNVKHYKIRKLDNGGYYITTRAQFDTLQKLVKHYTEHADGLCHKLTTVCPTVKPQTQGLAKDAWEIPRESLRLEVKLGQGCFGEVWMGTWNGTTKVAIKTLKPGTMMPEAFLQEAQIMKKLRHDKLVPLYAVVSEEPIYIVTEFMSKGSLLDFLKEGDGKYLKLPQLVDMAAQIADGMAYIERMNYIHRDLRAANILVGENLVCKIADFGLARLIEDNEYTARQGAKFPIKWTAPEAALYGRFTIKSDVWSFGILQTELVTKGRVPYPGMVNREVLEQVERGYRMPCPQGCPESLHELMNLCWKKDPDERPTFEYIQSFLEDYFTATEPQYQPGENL

[7] = Antiproliferative activity against human HCT116 cells; format: functional, cell-based; details: HCT-116
[8] = target: Tyrosine-protein kinase ABL1 (Homo sapiens, UniProt P00519); assay: Inhibition of c-Abl (unknown origin)
Chain of Tyrosine-protein kinase ABL1 (P00519 whole entry): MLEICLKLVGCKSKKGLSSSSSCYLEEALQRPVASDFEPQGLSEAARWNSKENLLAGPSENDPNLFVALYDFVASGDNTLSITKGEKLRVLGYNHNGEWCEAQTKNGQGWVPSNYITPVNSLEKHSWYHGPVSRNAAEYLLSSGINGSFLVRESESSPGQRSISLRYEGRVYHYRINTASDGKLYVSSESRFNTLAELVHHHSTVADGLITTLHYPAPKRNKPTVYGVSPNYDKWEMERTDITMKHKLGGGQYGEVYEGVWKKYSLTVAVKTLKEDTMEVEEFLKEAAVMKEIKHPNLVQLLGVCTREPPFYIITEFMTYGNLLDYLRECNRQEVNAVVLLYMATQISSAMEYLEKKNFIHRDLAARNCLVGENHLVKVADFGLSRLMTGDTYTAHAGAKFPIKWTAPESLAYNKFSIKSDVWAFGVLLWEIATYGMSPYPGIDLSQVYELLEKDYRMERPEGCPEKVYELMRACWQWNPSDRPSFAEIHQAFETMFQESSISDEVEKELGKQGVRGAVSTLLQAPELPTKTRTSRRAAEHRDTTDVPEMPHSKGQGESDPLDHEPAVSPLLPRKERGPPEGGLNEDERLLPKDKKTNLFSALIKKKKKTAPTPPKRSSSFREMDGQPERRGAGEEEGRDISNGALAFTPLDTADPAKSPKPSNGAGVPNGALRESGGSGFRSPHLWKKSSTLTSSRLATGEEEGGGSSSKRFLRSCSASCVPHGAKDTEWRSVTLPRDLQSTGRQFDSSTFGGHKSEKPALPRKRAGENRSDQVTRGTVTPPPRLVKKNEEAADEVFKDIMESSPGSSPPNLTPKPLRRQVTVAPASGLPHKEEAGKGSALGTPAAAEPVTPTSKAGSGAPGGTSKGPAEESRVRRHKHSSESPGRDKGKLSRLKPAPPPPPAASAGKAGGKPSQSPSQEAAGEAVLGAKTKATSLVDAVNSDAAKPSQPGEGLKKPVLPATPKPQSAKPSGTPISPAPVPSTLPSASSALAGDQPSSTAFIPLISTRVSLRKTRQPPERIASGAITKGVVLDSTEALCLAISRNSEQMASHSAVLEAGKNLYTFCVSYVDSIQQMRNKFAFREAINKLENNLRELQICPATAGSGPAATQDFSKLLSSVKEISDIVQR

[9] = Antiproliferative activity against human U87MG cells; format: functional, cell-based, U-87MG ATCC; details: U-87 MG
[10] = target: Homeodomain-interacting protein kinase 1 (Homo sapiens, UniProt Q86Z02); assay: Inhibition of HIPK1 (unknown origin)
Chain of Homeodomain-interacting protein kinase 1 (Q86Z02 whole entry): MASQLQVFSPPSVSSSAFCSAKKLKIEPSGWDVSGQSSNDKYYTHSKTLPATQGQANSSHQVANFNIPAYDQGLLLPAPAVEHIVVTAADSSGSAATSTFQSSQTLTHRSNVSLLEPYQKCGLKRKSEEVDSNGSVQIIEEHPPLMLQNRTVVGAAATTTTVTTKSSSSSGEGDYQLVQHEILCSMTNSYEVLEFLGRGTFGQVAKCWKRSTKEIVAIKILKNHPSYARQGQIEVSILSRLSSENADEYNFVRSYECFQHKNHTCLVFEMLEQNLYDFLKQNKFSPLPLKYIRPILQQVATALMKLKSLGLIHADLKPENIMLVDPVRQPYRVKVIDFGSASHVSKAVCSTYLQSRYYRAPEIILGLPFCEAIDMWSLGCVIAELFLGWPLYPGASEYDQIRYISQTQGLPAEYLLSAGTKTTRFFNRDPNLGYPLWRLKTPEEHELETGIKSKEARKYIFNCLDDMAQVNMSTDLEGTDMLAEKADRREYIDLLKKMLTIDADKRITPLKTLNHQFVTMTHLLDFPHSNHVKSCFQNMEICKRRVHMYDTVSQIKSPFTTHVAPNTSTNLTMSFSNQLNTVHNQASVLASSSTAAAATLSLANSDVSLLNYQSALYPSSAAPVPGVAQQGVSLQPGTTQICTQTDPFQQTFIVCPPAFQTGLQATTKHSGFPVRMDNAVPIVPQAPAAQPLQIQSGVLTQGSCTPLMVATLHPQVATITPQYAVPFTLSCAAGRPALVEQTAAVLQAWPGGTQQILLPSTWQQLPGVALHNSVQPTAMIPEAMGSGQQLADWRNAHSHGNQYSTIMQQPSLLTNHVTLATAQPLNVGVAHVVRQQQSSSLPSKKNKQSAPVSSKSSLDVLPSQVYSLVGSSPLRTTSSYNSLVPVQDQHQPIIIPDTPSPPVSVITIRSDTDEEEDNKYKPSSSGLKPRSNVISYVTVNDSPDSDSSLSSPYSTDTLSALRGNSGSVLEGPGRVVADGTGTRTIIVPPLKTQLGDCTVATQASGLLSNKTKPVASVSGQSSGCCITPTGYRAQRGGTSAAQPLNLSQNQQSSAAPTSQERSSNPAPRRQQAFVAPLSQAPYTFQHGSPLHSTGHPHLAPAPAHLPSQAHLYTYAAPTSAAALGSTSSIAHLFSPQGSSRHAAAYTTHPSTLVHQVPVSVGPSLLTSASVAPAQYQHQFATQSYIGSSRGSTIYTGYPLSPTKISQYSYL

[11] = Lipophilicity, logD of the compound at pH 7.4 by RP-HPLC method based chromatographic hydrophobicity index determination; format: physicochemical; details: buffer
[12] = Solubility in PBS buffer at pH 7.4 in presence of 1% BSA; format: physicochemical; details: PBS buffer with 1% BSA
[13] = Stability in mouse liver microsomes assessed as parent compound remaining after 1 hr; format: ADME; details: read-out: Stability
[14] = Efflux ratio in human Caco2 cells in presence of 1% BSA; format: ADME, cell-based; details: Caco-2
Cytochrome P450 3A4 = Cytochrome P450 3A4 (Homo sapiens, UniProt P08684); assay: Inhibition of CYP3A4 (unknown origin); format: ADME
Chain of Cytochrome P450 3A4 (P08684 whole entry): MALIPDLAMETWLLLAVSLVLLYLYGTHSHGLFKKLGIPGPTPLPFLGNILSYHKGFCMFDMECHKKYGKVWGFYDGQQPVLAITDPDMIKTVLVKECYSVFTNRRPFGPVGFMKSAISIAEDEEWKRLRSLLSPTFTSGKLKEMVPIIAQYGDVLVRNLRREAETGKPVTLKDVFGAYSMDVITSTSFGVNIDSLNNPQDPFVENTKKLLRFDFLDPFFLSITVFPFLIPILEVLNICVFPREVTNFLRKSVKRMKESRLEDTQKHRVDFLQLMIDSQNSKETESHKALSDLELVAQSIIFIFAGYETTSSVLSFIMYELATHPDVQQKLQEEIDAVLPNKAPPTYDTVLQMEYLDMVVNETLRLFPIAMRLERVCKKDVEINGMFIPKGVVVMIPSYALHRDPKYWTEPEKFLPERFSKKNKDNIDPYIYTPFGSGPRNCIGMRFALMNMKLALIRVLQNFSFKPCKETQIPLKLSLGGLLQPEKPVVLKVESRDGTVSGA

[15] = target: Voltage-gated inwardly rectifying potassium channel KCNH2 (Homo sapiens, UniProt Q12809); assay: Binding affinity to human ERG
[16] = Stability in mouse plasma assessed as parent compound remaining after 6 hrs; format: ADME, cell-free; details: read-out: Stability
[17] = Permeability from apical to basolateral side in human Caco2 cells in presence of 1% BSA; format: ADME, cell-based; details: Caco-2, read-out: permeability
[18] = Permeability from basolateral to apical side in human Caco2 cells in presence of 1% BSA; format: ADME, cell-based; details: Caco-2, read-out: permeability
[19] = target: Mitogen-activated protein kinase 1 (Homo sapiens, UniProt P28482); assay: Inhibition of ERK2 (unknown origin)
Chain of Mitogen-activated protein kinase 1 (P28482 whole entry): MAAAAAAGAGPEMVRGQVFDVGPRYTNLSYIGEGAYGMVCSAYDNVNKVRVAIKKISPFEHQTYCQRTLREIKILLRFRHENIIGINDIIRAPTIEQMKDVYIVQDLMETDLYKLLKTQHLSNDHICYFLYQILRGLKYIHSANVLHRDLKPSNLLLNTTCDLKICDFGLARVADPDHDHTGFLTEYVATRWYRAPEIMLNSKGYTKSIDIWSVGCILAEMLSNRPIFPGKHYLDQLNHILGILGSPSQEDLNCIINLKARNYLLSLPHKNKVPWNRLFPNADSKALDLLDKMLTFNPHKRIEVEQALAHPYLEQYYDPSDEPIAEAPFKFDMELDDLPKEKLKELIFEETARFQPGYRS

SMILES	IC50 [1] [µM]	CHI [2]	IC50 [3] [µM]	IC50 [4] [µM]	IC50 [5] [µM]	IC50 (A549) [µM]	IC50 (MDA-MB-468) [µM]	IC50 [6] [µM]	IC50 [7] [µM]	IC50 [8] [µM]	IC50 [9] [µM]	IC50 [10] [µM]	chromatographic logD [11]	solubility [12] [µM]	remaining at 1 h [13] [%]	further results
Cn1cc(-c2cnc3ccc(NC(=O)NCc4ccccc4)nc3c2)cn1	> 100	69.4	> 31.6	> 100	> 50	> 50	> 50	> 100	0.191	> 100	> 50	> 100	2.2	–	–	–
COc1ccc(-c2cnc3ccc(NC(=O)NC(C)(C)C)nc3c2)cc1OC	> 100	88.8	> 100	> 100	> 50	> 50	> 50	85.5	> 50	> 100	> 50	> 100	3.2	8.5	70.4	–
CCNC(=O)Nc1ccc2ncc(-c3ccc(OC)c(OC)c3)cc2n1	> 100	73.3	> 100	> 100	> 50	> 50	21.9	41.8	4.36	> 100	> 50	13.6	2.4	5.7	45.4	–
Cn1cc(-c2cnc3ccc(NC(=O)NCCc4ccccc4)nc3c2)cn1	> 100	71.6	32.5	12.7	–	–	1.8	26.9	1.2	> 100	> 50	> 100	2.3	3.9	81.1	efflux ratio [14]: 0.45; INH (Cytochrome P450 3A4): > 100 µM; INH [15]: > 60 µM; remaining at 6 h [16]: 96.7%; Papp A→B [17]: 64 ×10⁻⁶ cm/s; Papp B→A [18]: 29 ×10⁻⁶ cm/s
CCNC(=O)Nc1ccc2ncc(-c3ccc(OC)cc3)cc2n1	> 100	–	37.1	> 100	> 50	> 50	> 50	> 100	15.9	20.8	> 50	> 100	–	–	–	–
Cn1cc(-c2cnc3ccc(NC(=O)NC(C)(C)C)nc3c2)cn1	> 100	76.1	> 100	4.5	0.671	1	1.96	7.95	0.651	6.05	> 50	> 100	2.5	–	–	–
COc1cc(-c2cnc3ccc(NC(=O)NC(C)(C)C)nc3c2)ccc1O	> 100	79.3	> 100	80.6	4.91	14.2	3.89	42.9	4.59	> 100	9.68	> 100	2.7	–	–	–
Cn1cc(-c2cnc3ccc(NC(=O)Nc4ccccc4)nc3c2)cn1	> 100	73.3	> 31.6	> 100	1.37	3.08	1.31	> 100	1.38	> 100	> 50	> 100	2.4	–	–	–
Cn1cc(-c2cnc3c(NC(=O)NC(C)(C)C)ccnc3c2)cn1	–	–	–	–	–	–	–	–	–	–	–	–	–	–	–	IC50 [19]: 31.6 µM
